Test results reported in patent US20090041820A1, “Functional polymer compositions” (priority 2007, published 2009).

Assays:
[1] = PAO/ester/triclosan migration from PP strips (weight loss, toluene wash, surface observation); format: physicochemical; settings: fast cooled PP strips
Protocol: Preparation of sample 24892-114-0 to 7: The polypropylene described above (85% by weight) was melt blended in a mixer with 15 wt % triclosan stock solution as prepared in Table 2. The mixed polymer was then compression molded into 4″×4″ squares with less than 1 mm thickness. Two methods were used to prepare the PP strip with very different results. One method includes fast cooling after the compression molding (quench sample with a 7° C. cooling surface). The sample strip had PAO fluid on surface indicating fast PAO migration after a few hours at room temperature. The other method included slow cooling after the compression molding (cool sample in ambient air, 23° C.). Sample strip appeared very dry with no apparent PAO fluid on surface. When this sample was put into 70° C. oven, slight oiliness was observed on the surface.
Table 4 below depicts the PAO/ester/Triclosan migration from the PP strips as measured by weight loss in 7 days.
For fast cooled PP strips, there was up to 1.8 wt % weight loss by toluene wash due to PAO/ester/Triclosan migration to the surface.

[2] = Solubility of triclosan in PAO carrier fluid; format: physicochemical; settings: PAO without ester

Oc1cc(Cl)ccc1Oc1ccc(Cl)cc1Cl [Triclosan]
migration to the surface, confirmed by GC analysis of the toluene wash [1]: migrated to the surface
solubility in PAO alone [2]: low solubility
